pIC50: −log10 of the molar value. Where two headings read alike, the source gives them in different places.

The assay addresses T1, pendrin (Homo sapiens, UniProt O43511).
T1 sequence (O43511 1-780): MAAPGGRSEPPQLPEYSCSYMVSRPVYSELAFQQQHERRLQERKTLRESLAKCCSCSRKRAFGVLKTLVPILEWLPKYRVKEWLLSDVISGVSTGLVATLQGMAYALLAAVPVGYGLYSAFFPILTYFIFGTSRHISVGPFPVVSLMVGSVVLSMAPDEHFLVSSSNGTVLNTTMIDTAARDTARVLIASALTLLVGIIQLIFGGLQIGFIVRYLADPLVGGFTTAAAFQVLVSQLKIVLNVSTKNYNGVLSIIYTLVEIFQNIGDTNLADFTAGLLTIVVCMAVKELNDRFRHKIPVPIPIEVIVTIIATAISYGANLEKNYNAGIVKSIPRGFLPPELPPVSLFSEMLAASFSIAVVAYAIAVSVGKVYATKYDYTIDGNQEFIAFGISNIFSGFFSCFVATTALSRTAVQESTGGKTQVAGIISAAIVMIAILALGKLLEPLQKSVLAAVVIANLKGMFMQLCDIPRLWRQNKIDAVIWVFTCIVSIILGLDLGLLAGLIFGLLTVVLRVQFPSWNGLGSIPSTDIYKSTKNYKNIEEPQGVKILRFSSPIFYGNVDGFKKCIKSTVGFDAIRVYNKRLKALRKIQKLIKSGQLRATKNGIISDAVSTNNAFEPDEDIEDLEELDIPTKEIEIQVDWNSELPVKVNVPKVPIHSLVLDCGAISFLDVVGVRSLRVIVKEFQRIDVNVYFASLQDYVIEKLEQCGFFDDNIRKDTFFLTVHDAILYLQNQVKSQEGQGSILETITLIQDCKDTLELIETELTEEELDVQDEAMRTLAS
Briefly: YFP (EYFP-HIF) fluorescence quenching assay of pendrin-mediated Cl− exchange (SCN−, I−, NO3−) in FRT cells; high-throughput screen. The assay is classed as cell-based. The settings on record: for inhibition at 25 µM: FRT, read-out: Inh. (%), percentage inhibition of human pendrin. Also on record: expressed in transfected cells. As to the method:
Fischer rat thyroid (FRT) cells were cultured in Kaign's modified Ham's F12 medium supplemented with 10% FBS, 2 mM L-glutamine, 100 U/ml penicillin, […], […] myo-inositol and […] ascorbic acid. For high-throughput screening, FRT cells were stably transfected with EYFP-H148Q/I152L/F46L (EYFP-HIF; in pcDNA3.1/Hygro (+)), isolated using 0.25 mg/ml hygromycin B, and then transfected with pcDNA3.1 (+) encoding human pendrin with clonal cell lines selected using 0.5 mg/ml G418.
High-throughput screening was performed using a semi-automated screening platform (Beckman, Fullerton, Calif.) configured as described. FRT cells expressing human pendrin and EYFP-HIF were plated in 96-well black-walled, clear-bottom tissue culture plates (Corning, Corning, N.Y.) at a density of 20,000 cells/well, and cultured to confluence over 48 h. For screening, plates were washed twice with PBS (in mM: 137 NaCl, 2.7 KCl, 1.1 KH2PO4, 8.1 Na2HPO4, 0.9 CaCl2), 0.5 MgCl2) prior to addition of 100 μl PBS containing test compounds. Screening was done with ˜36,000 compounds from ChemDiv (San Diego, Calif.), TimTec (Newark, Del.), and Asinex (Winston-Salem, N.C.). After 10 min incubation with test compound, plates were transferred to a Tecan Infinite M1000 plate reader (Tecan, Morrisville, N.C.) for fluorescence assay of pendrin activity. The assay duration was 10 s with initial fluorescence intensity recorded for 2 s prior to addition of 100 μl of NaSCN-substituted PBS (137 mM NaCl replaced with NaSCN). All assay plates contained negative controls (DMSO). In some experiments Cl^− exchange for I^− or NO3^− was measured similarly using NaI and NaNO3-substituted PBS. Control experiments to measure basal ion transport rates were done in FRT cells expressing EYFP-HIF without pendrin.
FRT cells were chosen for screening due to their low intrinsic permeability to anions that are transported by pendrin. As depicted in FIGS. 1A and 2A, pendrin activity was assayed from the kinetics of the halide-sensitive fluorescent protein EYFP-HIF in response to addition of a SCN^−-containing solution to drive pendrin-mediated Cl^−/SCN^−. Pendrin inhibition reduces the rate of EYFP-HIF quenching. PDSinh-A01 land PDSinh-C01 decreased pendrin-mediated Cl^−/SCN^− and Cl^−/I^− exchange in a concentration-dependent manner, as measured by YFP fluorescence quenching. […] Because the only previously-described pendrin inhibitor is the weakly active compound niflumic acid, no positive control was included in the screening plates.

Usually inhibition stands for the share of the control response that was lost under treatment. In the case of `Cn1nc(COc2cccc(F)c2)c2c1CCN(C(=O)Nc1ccc(Cl)cc1)C2` [PDSinh-A01], the inhibition at 25 µM was around 100%. For the same compound, the pIC50 (Cl−/I− exchange, read-out: IC50 for Cl−/I− exchange) was around 5.10. Moreover, the pIC50 (Cl−/NO3− exchange, read-out: IC50 for Cl−/NO3− exchange) was around 5.30. Further, where the note is “Cl−/SCN− exchange, 10 μM added for indicated times”, the “time at which ~IC50 (half inhibition) was displayed, inhibition kinetics” value was determined as 5 min. Also, the pIC50 (Cl−/SCN− exchange, read-out: IC50 for Cl−/SCN− exchange) is around 5.05. Under “washout”, the “reversibility of inhibition by washout” value is listed as “reversible”.

Turning to `Cc1n[nH]c(-c2cc(S(=O)(=O)NC3CCCc4ccccc43)c(C)s2)c1C` (stereo not shown) [PDSinh-C01], the inhibition at 25 µM worked out at 83%.
